Compared with COC(=O)c1ccc(-c2nc(-c3ccc(Cl)cc3)co2)cc1 [Example 1, methyl 4-[4-(4-chlorophenyl)-2-oxazolyl]benzoate], CCOC(=O)c1ccc(-c2coc(-c3ccc(Cl)cc3)n2)cc1 [Example 6, ethyl 4-[2-(4-chlorophenyl)-4-oxazolyl)benzoate] is lower in melting point: 183 to 184 °C for the first, 153 to 154 °C for the second.

First: COC(=O)c1ccc(-c2nc(-c3ccc(C(F)(F)F)cc3)co2)cc1 [Example 2, methyl 4-[4-(4-trifluoromethylphenyl)-2-oxazolyl]benzoate]
Second: CCOC(=O)c1ccc(-c2coc(-c3ccc(C(F)(F)F)cc3)n2)cc1 [Example 19, ethyl 4-[2-(4-trifluoromethylphenyl)-4-oxazolyl]benzoate]
The melting point of the first is higher: 182 to 183 °C for the first, 168 to 170 °C for the second.

First: COC(=O)c1ccc(-c2nc(-c3ccc(OC)cc3)co2)cc1 [Example 3, methyl 4-[4-(4-methoxyphenyl)-2-oxazolyl]benzoate]
Second: COc1ccc(-c2coc(-c3ccc(C(=O)O)cc3)n2)cc1 [Example 10, 4-[4-(4-methoxyphenyl)-2-oxazolyl]benzoic acid]
The melting point of the first is lower: 200 to 202 °C for the first, 286 to 287 °C for the second.

First: COC(=O)c1ccc(-c2nc(-c3ccccc3)co2)cc1 [Example 4, methyl 4-(4-phenyl-2-oxazolyl)benzoate]
Second: CCOC(=O)c1ccc(-c2coc(-c3ccccc3)n2)cc1 [Example 5, ethyl 4-(2-phenyl-4-oxazolyl)benzoate]
The melting point of the first is higher: 175 to 176 °C for the first, 110 to 112 °C for the second.

Compared with COC(=O)c1ccc(-c2nc(-c3ccc(Cl)s3)co2)cc1 [Example 7, methyl 4-[4-(5-chloro-2-thienyl)-2-oxazolyl]benzoate], COC(=O)c1ccc(-c2nc(-c3ccc(Cl)s3)cs2)cc1 [Example 30, methyl 4-[4-(5-chloro-2-thienyl)-2-thiazolyl]benzoate] is lower in melting point: 189 to 190 °C for the first, 171 to 172 °C for the second.

Compared with O=C(O)c1ccc(-c2nc(-c3ccccc3)co2)cc1 [Example 11, 4-(4-phenyl-2-oxazolyl]benzoic acid], O=C(O)c1ccc(-c2coc(-c3ccccc3)n2)cc1 [Example 12, 4-(2-phenyl-4-oxazolyl]benzoic acid] is lower in melting point: 275 to 276 °C for the first, 271 to 273 °C for the second.

Compared with O=C(O)c1ccc(-c2coc(-c3ccc(Cl)cc3)n2)cc1 [Example 13, 4-[2-(4-chlorophenyl)-4-oxazolyl]benzoic acid], O=C(O)c1ccc(-c2coc(-c3ccc(C(F)(F)F)cc3)n2)cc1 [Example 25, 4-[2-(4-trifluoromethylphenyl)-4-oxazolyl]benzoic acid] is higher in melting point: 288 to 289 °C for the first, 294 to 295 °C for the second.

Compared with O=C(O)c1ccc(-c2nc(-c3ccccc3C(F)(F)F)co2)cc1 [Example 15, 4-[4-(2-trifluoromethylphenyl)-2-oxazolyl]benzoic acid], O=C(O)c1ccc(-c2nc(-c3cccc(C(F)(F)F)c3)co2)cc1 [Example 22, 4-[4-(3-trifluoromethylphenyl)-2-oxazolyl]benzoic acid] is lower in melting point: 264 to 265 °C for the first, 253 to 254 °C for the second.

First: COC(=O)c1ccc(-c2nc(-c3cccc(C(F)(F)F)c3)co2)cc1 [Example 16, methyl 4-[4-(3-trifluoromethylphenyl)-2-oxazolyl]benzoate]
Second: COC(=O)c1cccc(-c2nc(-c3ccc(C(F)(F)F)cc3)co2)c1 [Example 21, methyl 3-[4-(4-trifluoromethylphenyl)-2-oxazolyl]benzoate]
The melting point of the first is lower: 134 to 135 °C for the first, 151 to 152 °C for the second.

First: COC(=O)c1ccc(-c2nc(-c3cc(C(F)(F)F)cc(C(F)(F)F)c3)co2)cc1 [Example 17, methyl 4-[4-[3,5-bis(trifluoromethyl)phenyl]-2-oxazolyl]benzoate]
Second: O=C(O)c1ccc(-c2nc(-c3cc(C(F)(F)F)cc(C(F)(F)F)c3)co2)cc1 [Example 23, 4-[4-[3,5-bis(trifluoromethyl)phenyl)-2-oxazolyl]benzoic acid]
The melting point of the first is lower: 180 to 181 °C for the first, 277 to 279 °C for the second.

First: COC(=O)c1ccc(-c2nc(-c3ccc(OC(F)F)cc3)co2)cc1 [Example 18, methyl 4-[4-(4-difluoromethoxylphenyl)-2-oxazolyl]benzoate]
Second: O=C(O)c1ccc(-c2nc(-c3ccc(OC(F)F)cc3)co2)cc1 [Example 24, 4-[4-(4-difluoromethoxylphenyl)-2-oxazolyl]benzoic acid]
The melting point of the first is lower: 160 to 161 °C for the first, 261 to 262 °C for the second.

Compared with CCOC(=O)c1ccc(-c2coc(-c3cccc(C(F)(F)F)c3)n2)cc1 [Example 20, ethyl 4-[2-(3-trifluoromethylphenyl)-4-oxazolyl]benzoate], O=C(O)c1ccc(-c2coc(-c3cccc(C(F)(F)F)c3)n2)cc1 [Example 26, 4-[2-(3-trifluoromethylphenyl)-4-oxazolyl]benzoic acid] is higher in melting point: 132 to 133 °C for the first, 268 to 269 °C for the second.

Compared with O=C(O)c1cccc(-c2nc(-c3ccc(C(F)(F)F)cc3)co2)c1 [Example 27, 3-[4-(4-trifluoromethylphenyl)-2-oxazolyl]benzoic acid], COC(=O)c1cccc(-c2nc(-c3ccc(C(F)(F)F)cc3)cs2)c1 [Example 44, methyl 3-[4-(4-trifluoromethylphenyl)-2-thiazolyl]benzoate] is lower in melting point: 206 to 208 °C for the first, 142 to 143 °C for the second.

First: COC(=O)c1ccc(-c2nc(-c3ccc(OC(F)F)cc3)cs2)cc1 [Example 28, methyl 4-[4-(4-difluoromethoxyphenyl)-2-thiazolyl]benzoate]
Second: COC(=O)c1ccc(-c2nc(-c3ccc(OC(F)(F)F)cc3)cs2)cc1 [Example 41, methyl 4-[4-(4-trifluoromethoxyphenyl)-2-thiazolyl]benzoate]
The melting point of the first is higher: 146 to 148 °C for the first, 138 to 139 °C for the second.

COC(=O)c1ccc(-c2nc(-c3ccc(Cl)cc3)cs2)cc1 [Example 29, methyl 4-[4-(4-chlorophenyl)-2-thiazolyl]benzoate] and COC(=O)c1ccc(-c2nc(-c3ccc(C)cc3)cs2)cc1 [Example 33, methyl 4-[4-(4-methylphenyl)-2-thiazolyl]benzoate] cannot be ordered by melting point: 186 to 187 °C for the first, 185 to 187 °C for the second.

First: Br.CCOC(=O)c1ccc(-c2csc(-c3cccnc3)n2)cc1 [Example 31, ethyl 4-[2-(3-pyridyl)-4-thiazolyl]benzoate hydrobromide]
Second: Br.COC(=O)c1ccc(-c2nc(-c3cccnc3)cs2)cc1 [Example 34, methyl 4-[4-(3-pyridyl)-2-thiazolyl]benzoate hydrobromide]
The melting point of the first is lower: 234 to 236 °C for the first, 241 to 242 °C for the second.

Compared with Br.COC(=O)c1ccc(-c2nc(-c3ccncc3)cs2)cc1 [Example 35, methyl 4-[4-(4-pyridyl)-2-thiazolyl]benzoate hydrobromide], Br.CCOC(=O)c1ccc(-c2csc(-c3ccncc3)n2)cc1 [Example 36, ethyl 4-[2-(4-pyridyl)-4-thiazolyl]benzoate hydrobromide] is higher in melting point: 238 to 240 °C for the first, 248 to 250 °C for the second.

Compared with Br.COC(=O)c1ccc(-c2nc(-c3ccccn3)cs2)cc1 [Example 38, methyl 4-[4-(2-pyridyl)-2-thiazolyl]benzoate hydrobromide], COC(=O)c1ccc(-c2nc(-c3cccc(Cl)c3)cs2)cc1 [Example 43, methyl 4-[4-(3-chlorophenyl)-2-thiazolyl]benzoate] is lower in melting point: 243 to 244 °C for the first, 150 to 151 °C for the second.

First: CCOC(=O)c1ccc(-c2csc(-c3ccc(Cl)cc3)n2)s1 [Example 39, ethyl 5-[2-(4-chlorophenyl)-4-thiazolyl]-2-thienylcarboxylate]
Second: O=C(O)c1ccc(-c2nc(-c3ccc(Cl)s3)cs2)cc1 [Example 53, 4-[4-(5-chloro-2-thienyl)-2-thiazolyl]benzoic acid]
The melting point of the first is lower: 234 to 236 °C for the first, 283 to 284 °C for the second.

First: COC(=O)c1ccc(-c2nc(-c3cccc(OC(F)(F)F)c3)cs2)cc1 [Example 40, methyl 4-[4-(3-trifluoromethoxyphenyl)-2-thiazolyl]benzoate]
Second: COC(=O)c1cccc(-c2nc(-c3cccc(OC(F)(F)F)c3)cs2)c1 [Example 50, methyl 3-[4-(3-trifluoromethoxyphenyl)-2-thiazolyl]benzoate]
The melting point of the first is higher: 132 to 134 °C for the first, 84 to 85 °C for the second.

Compared with COC(=O)c1ccc(-c2nc(-c3c(F)c(F)c(F)c(F)c3F)cs2)cc1 [Example 42, methyl 4-[4-(2,3,4,5,6-pentafluorophenyl)-2-thiazolyl]benzoate], COC(=O)c1cccc(-c2nc(-c3ccc(F)cc3F)cs2)c1 [Example 46, methyl 3-[4-(2,4-difluorophenyl)-2-thiazolyl]benzoate] is lower in melting point: 141 to 142 °C for the first, 121 to 122 °C for the second.

First: COC(=O)c1cccc(-c2nc(-c3cccc(C(F)(F)F)c3)cs2)c1 [Example 45, methyl 3-[4-(3-trifluoromethylphenyl)-2-thiazolyl]benzoate]
Second: COC(=O)c1cccc(-c2nc(-c3ccc(OC)cc3)cs2)c1 [Example 47, methyl 3-[4-(4-methoxyphenyl)-2-thiazolyl]benzoate]
The melting point of the first is lower: 105 to 106 °C for the first, 108 to 109 °C for the second.

First: CCOC(=O)c1cccc(-c2nc(-c3cc(C)oc3C)cs2)c1 [Example 49, ethyl 3-[4-(2,5-dimethyl-3-furyl)-2-thiazolyl]benzoate]
Second: Cc1ccc(-c2csc(-c3ccc(C(=O)O)cc3)n2)cc1 [Example 56, 4-[4-(4-methylphenyl)-2-thiazolyl]benzoic acid]
The melting point of the first is lower: 100 to 101 °C for the first, 289 to 290 °C for the second.

Work on O=C(O)c1ccc(-c2nc(-c3cccnc3)cs2)cc1 [Example 57, 4-[4-(3-pyridyl)-2-thiazolyl]benzoic acid] yielded a melting point of 303 to 304 °C.

In the case of O=C(O)c1ccc(-c2nc(-c3ccc(Cl)s3)co2)cc1 [Example 14, 4-[4-(5-chloro-2-thienyl)-2-oxazolyl]benzoic acid], the melting point is reported as ≥ 300 °C.
In the case of O=C(O)c1ccc(-c2csc(-c3cccnc3)n2)cc1 [Example 54, 4-[2-(3-pyridyl)-4-thiazolyl]benzoic acid], the melting point is reported as > 300 °C.
For O=C(O)c1ccc(-c2nc(-c3ccncc3)cs2)cc1 [Example 58, 4-[4-(4-pyridyl)-2-thiazolyl]benzoic acid], the melting point was > 300 °C.
With O=C(O)c1ccc(-c2csc(-c3ccncc3)n2)cc1 [Example 59, 4-[2-(4-pyridyl)-4-thiazolyl]benzoic acid] the melting point was > 300 °C.
